For the experiment, the target named is T1, hBLT1 (Homo sapiens, UniProt Q15722).
T1 construct: expressed in transfected cells; membrane preparation
Description: [3H]-LTB4 binding assay in hBLT1 containing membranes. The settings on record: [3H]-LTB4 displacement, hBLT1/CHO-K1 membranes, Ki = IC50/2.7. On the procedure: [^3H]-LTB4 and known BLT1 and BLT2 antagonists are used to generate LTB4 displacement curves and IC50 values for compounds of the present invention. Receptor inhibition by compounds of the present invention is determined relative to BLT1 inhibitor and BLT2 inhibitor reference molecules to obtain percent efficacies.
hBLT1 Test Compound Preparations: For hBLT1 assays, test compounds are prepared in DMSO to make up a 10 mM stock solution. […]
hBLT1/CHO-K1 Stable Xcell Line Preparations: Human BLT1 receptor DNA (National Center for Biotechnology Information (NCBI), Reference Sequence NM_181657) is synthesized and cloned into expression vector pcDNA3.1/Hygro(+) (Invitrogen V87020). […] Single clones are isolated and screened for BLT1 expression and function using Western Blot analysis and Fluorometric Imaging Plate Reader (FLIPR®) calcium release assay. […]
[^3H]-LTB4 (30 μL of 1.3 nM, PerkinElmer NET-852) is aliquoted into a 96-well Millipore Multiscreen-filter binding plate (catalogue number MAFBNOB10) which is pre-wetted with Buffer A (50 mM HEPES pH 7.4, 10 mM MgCl2, 10 mM NaCl, 10% glycerol, 1% BSA). […] The plate is allowed to sit for 16 h and then read on a Packard Instrument Company Topcount® for 1 min. […] The IC50s are converted to Ki values by dividing by 2.7 (previously calculated). […]

SMILES strings stand for the structures. Like-named read-outs stand apart in the source and are kept apart here.

In general, Ki refers to the equilibrium dissociation constant of an inhibitor or competing ligand from its target.

T1 sequence (Q15722 whole entry): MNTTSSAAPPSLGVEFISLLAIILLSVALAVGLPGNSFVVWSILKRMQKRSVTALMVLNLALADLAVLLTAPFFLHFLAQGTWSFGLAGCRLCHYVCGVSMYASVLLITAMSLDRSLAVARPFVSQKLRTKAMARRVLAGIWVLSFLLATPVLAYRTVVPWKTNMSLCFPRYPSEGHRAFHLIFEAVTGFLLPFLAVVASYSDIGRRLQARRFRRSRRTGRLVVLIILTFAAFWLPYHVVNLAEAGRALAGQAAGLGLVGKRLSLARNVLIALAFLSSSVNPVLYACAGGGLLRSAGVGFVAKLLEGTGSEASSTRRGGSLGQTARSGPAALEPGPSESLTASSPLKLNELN

In the case of `CCCc1c(NC(=O)CC(C)(C)C(=O)[O-])cccc1OCCCOc1cc(O)c(-c2ccc(F)cc2)cc1CC.[Na+]` [Example 2, Sodium 4-[[3-[3-[2-ethyl-4-(4-fluorophenyl)-5-hydroxy-phenoxy]propoxy]-2-propyl-phenyl]amino]-2,2-dimethyl-4-oxo-butanoate], the Ki (read-out: absolute Ki) was found to be 5.5 nM and the Ki (read-out: relative Ki) was found to be 10.4 nM.

These data come from patent US9187411B2, “Leukotriene B4 antagonist compound” (Eli Lilly and Company, priority 2012, dated 2015).
